Experimental data from paper PMC6515314 (Molecules, 2019).
Starred links: 1 amine or outer side, 2 acyl side, 3 side chain; linkers in the order of their positions; H or OH if unused. Non-standard residues stand in square brackets, D forms with d. Residues, ends and D or L forms follow the SMILES beside them. X1 = O=C([C@H](Cc1cncn1CCCCc1cn(Cc2c(F)cccc2Oc2ccccc2)nn1)N[*:1])[*:2]; X3 = O=C([C@H](Cc1cncn1CCCCc1cn(Cc2ccc(F)c(Cl)c2)nn1)N[*:1])[*:2]; X4 = O=C([C@H](Cc1cncn1CCCCc1cn(Cc2ccc(F)cc2)nn1)N[*:1])[*:2]; X2 = O=C([C@H](Cc1cncn1CCCCc1cn(Cc2ccccc2)nn1)N[*:1])[*:2]; X5 = C#CCCCCn1cncc1C[C@H](N[*:1])C(=O)[*:2]; pT = C[C@@H](OP(=O)(O)O)[C@H](N)C(=O)O; Pra = C#CC[C@H](N)C(=O)O

Tests used:
Assay type in all cases: binding
Plk1 PBD = target: T1, Plk1 PBD (Homo sapiens, UniProt P53350); test: Fluorescence polarization (FP) assay, isolated Plk1 PBD; settings: for IC50: FP assay, average ± SEM
T1 construct: a plasmid encoding myc-tagged Plk1 PBD was purchased from Addgene; host or cells: HEK-293T
Procedure: (§1) Plasmids encoding the myc-tagged PBDs of Plk2 and Plk3 were generous gifts from Prof. […] The supernatant containing expressed protein was diluted into 8 mL of PBS (pH 7.4) containing protease/phosphatase inhibitor cocktail. This protein solution was added to a 1 mL bed of myc-agarose resin (Thermo Scientific, Waltham, MA, USA) and allowed to bind for 2 h at 4 °C with gentle rotation. The lysate was eluted and the resin was washed 4× with 4-(2-hydroxyethyl)-1-piperazineethanesulfonic acid (HEPES) buffered saline (HBS) containing 0.05% Tween-20, 1 mM dithiothreitol (DTT) and 1 mM ethylenediaminetetraacetic acid (EDTA). The bound PBD protein was then eluted with a 1 mg/mL solution of myc peptide ([…]) in HBS + 1 mM DTT and 1 mM EDTA. […] The concentration of the final protein solution was determined by absorbance at 280 nm and purity was determined by SDS-PAGE (sodium dodecyl sulfate-polyacrylamide gel electrophoresis) with Coomassie staining.
As previously reported, isolated PBD protein was diluted to a 2× working dilution in assay buffer (HEPES-buffered saline with 0.05% Tween-20, 1 mM DTT, and 1 mM EDTA). […] Inhibitors were serially diluted to generate 4× working dilutions in assay buffer containing 4% DMSO. 20 μL of 2× PBD solution was added to each well of a 384-well plate (0% binding controls received 20 μL of assay buffer). 10 μL of the 4× inhibitor solution (or DMSO blank) was added to corresponding wells and allowed to pre-incubate at RT for 30 min with shaking. The following sequences were utilized as fluorescent probes: 5CF-GPMQSpTPLNG-NH2 for Plk1 PBD; 5CF-GPMQTSpTPKNG-NH2 for Plk2 PBD and 5CF-PLATSpTPKNG-NH2 for Plk3 PBD [10]. Fluorescent probes were diluted to 40 nM (4×) in assay buffer and then 10 μL was added to each well. The plate was allowed to equilibrate at room temperature for (30 min) with shaking. […] The FP values were obtained in triplicate and normalized to 100% (no inhibitor) and 0% binding (no protein) controls. Normalized values were plotted versus concentration and analyzed using non-linear regression in GraphPad Prism 8 (GraphPad Software, San Diego, CA, USA) [log(inhibitor) vs. response-variable slope (four parameter) model].

Plk2 PBD = test: Fluorescence polarization (FP) assay, isolated Plk2 PBD; settings: average ± SEM
Procedure: as §1
(§2) As previously reported, isolated PBD protein was diluted to a 2× working dilution in assay buffer (HEPES-buffered saline with 0.05% Tween-20, 1 mM DTT, and 1 mM EDTA). […] Normalized values were plotted versus concentration and analyzed using non-linear regression in GraphPad Prism 8 (GraphPad Software, San Diego, CA, USA) [log(inhibitor) vs. response-variable slope (four parameter) model].

full-length Plk1 = target: T2, full-length Plk1 (Homo sapiens, UniProt P53350); test: ELISA assay using full-length Plk1
T2 construct: a plasmid encoding myc-tagged full-length Plk1 (Addgene, Plasmid #41160); host or cells: HEK-293T (crude cytosolic lysate, not purified)
Procedure: Following 48 h expression, cells were harvested, lysed in buffer (PBS, pH 7.4 with 0.5% NP-40 and protease/phosphatase inhibitor cocktail) using freeze/thaw cycles (3×) and centrifuged at 10,000× g for 10 min at 4 °C. The supernatant was removed to provide a crude cytosolic lysate containing overexpressed, myc-tagged Plk1 (total protein concentration determined by bicinchoninic acid (BCA) assay).
As previously reported [25, 26, 50] a biotinylated phosphopeptide (sequence: Biotin-Ahx-PMQS(pT)PLN-NH2) was diluted to 1 µM (from a 2 mM DMSO stock solution) in PBS (pH 7.4) and loaded onto the wells of a 96-well Neutravidin-coated plate (Pierce Biotechnology, ThermoFisher Scientific, Waltham, MA, USA) at 100 µL per well for 1 h (background control contained no biotinylated peptide). The wells were washed once with 150 µL PBST (PBS, pH 7.4 + 0.05% Tween-20), and then 100 µL of 1% BSA in PBS (pH 7.4) (blocking buffer) was added for 1 h. A cytosolic lysate-containing transiently expressed myc-tagged Plk1 protein was diluted to 300 µg/mL in PBS (pH 7.4) containing protease/phosphatase inhibitors (Pierce Biotechnology), mixed with competitive inhibitor (from a 10× stock in ~4% DMSO/PBS), and allowed to pre-incubate for 1 h (100 µL per well in a 96-well plate, 30 µg total protein). The blocked ELISA plate was washed 2× with PBST (PBS, pH 7.4 + 0.05% Tween-20) (150 µL) and the pre-incubated lysates were added to the plate and incubated (1 h). […] The wells were then washed 5× with PBST (150 µL) and incubated with Turbo TMB (3,3′,5,5′-tetramethyl benzidine substrate)-ELISA solution (Pierce Biotechnology) until the desired absorbance was reached (5–10 min). The reaction was quenched by the addition of 2 N aqueous H2SO4 and the absorbance was measured at 450 nm using a BioTek Synergy 2 96-well plate reader. Absorbance was plotted versus concentration (logM) and fit to a non-linear regression analysis using GraphPad Prism 8 software [model: log(inhibitor) vs. response-variable slope (four parameters)].

Plk3 PBD = target: T3, Plk3 PBD (Homo sapiens, UniProt Q9H4B4); test: Fluorescence polarization (FP) assay, isolated Plk3 PBD; settings: average ± SEM
T3 sequence (Q9H4B4 418-646 limits assumed): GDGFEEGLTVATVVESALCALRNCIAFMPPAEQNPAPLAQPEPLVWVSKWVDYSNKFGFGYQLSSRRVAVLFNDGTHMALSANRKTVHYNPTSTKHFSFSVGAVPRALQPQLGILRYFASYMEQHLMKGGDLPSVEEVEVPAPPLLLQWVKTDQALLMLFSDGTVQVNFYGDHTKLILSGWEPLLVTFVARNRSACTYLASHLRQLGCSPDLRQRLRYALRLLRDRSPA
Procedure: as §1, §2

T2 sequence (P53350 whole entry): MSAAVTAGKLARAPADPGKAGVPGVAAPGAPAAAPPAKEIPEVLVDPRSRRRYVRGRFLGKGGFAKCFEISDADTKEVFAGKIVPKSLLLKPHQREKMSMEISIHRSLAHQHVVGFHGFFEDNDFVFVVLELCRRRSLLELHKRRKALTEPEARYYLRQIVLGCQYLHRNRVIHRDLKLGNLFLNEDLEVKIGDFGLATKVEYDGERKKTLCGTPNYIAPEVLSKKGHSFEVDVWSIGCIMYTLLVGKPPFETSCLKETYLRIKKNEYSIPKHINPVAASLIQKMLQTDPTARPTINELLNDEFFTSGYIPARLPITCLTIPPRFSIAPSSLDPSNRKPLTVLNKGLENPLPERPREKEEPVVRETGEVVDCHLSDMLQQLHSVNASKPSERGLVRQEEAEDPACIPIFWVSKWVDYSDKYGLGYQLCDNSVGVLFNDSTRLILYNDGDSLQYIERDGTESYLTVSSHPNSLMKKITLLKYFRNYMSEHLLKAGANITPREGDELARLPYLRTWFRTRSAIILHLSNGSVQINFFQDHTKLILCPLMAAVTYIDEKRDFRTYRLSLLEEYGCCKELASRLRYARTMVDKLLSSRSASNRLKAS
T1 sequence (P53350 326-603 limits assumed): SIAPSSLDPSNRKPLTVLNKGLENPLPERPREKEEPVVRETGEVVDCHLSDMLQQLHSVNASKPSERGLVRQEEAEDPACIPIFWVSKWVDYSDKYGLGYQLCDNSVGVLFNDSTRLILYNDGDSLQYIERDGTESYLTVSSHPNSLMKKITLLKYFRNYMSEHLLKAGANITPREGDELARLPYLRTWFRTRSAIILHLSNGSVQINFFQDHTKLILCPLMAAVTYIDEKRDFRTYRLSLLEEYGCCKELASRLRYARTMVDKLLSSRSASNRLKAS

**Q.** What does the source list for `CC(=O)N1CCC[C@H]1C(=O)N[C@@H](CC(C)C)C(=O)N[C@@H](Cc1cncn1CCCCc1cn(Cc2ccccc2)nn1)C(=O)N[C@@H](CO)C(=O)N[C@H](C(N)=O)[C@@H](C)OP(=O)(O)O` [Peptide 3a] (Ac-PL[X2]S[pT]-NH2)?
**A.** relative loss of Plk1 PBD-binding affinity versus peptide 2a (Plk1 PBD; FP): ~8 fold; IC50 (Plk1 PBD): 110 ± 6.6 nM

**Q.** Which IC50 (Plk1 PBD) does the source give for `CC(=O)N1CCC[C@H]1C(=O)N[C@@H](CC(C)C)C(=O)N[C@@H](Cc1cncn1CCCCc1cn(Cc2ccc(F)cc2)nn1)C(=O)N[C@@H](CO)C(=O)N[C@H](C(N)=O)[C@@H](C)OP(=O)(O)O` [Peptide 3b] (Ac-PL[X4]S[pT]-NH2) here?
**A.** 100 ± 19 nM

**Q.** For `CC(=O)N1CCC[C@H]1C(=O)N[C@@H](CC(C)C)C(=O)N[C@@H](Cc1cncn1CCCCc1cn(Cc2ccc(F)c(Cl)c2)nn1)C(=O)N[C@@H](CO)C(=O)N[C@H](C(N)=O)[C@@H](C)OP(=O)(O)O` [Peptide 3c] (Ac-PL[X3]S[pT]-NH2), which IC50 (Plk1 PBD) is on record?
**A.** 130 ± 9.8 nM

**Q.** For `CC(=O)N1CCC[C@H]1C(=O)N[C@@H](CC(C)C)C(=O)N[C@@H](Cc1cncn1CCCCc1cn(Cc2c(F)cccc2Oc2ccccc2)nn1)C(=O)N[C@@H](CO)C(=O)N[C@H](C(N)=O)[C@@H](C)OP(=O)(O)O` [Peptide 3d] (Ac-PL[X1]S[pT]-NH2), which IC50 (Plk2 PBD) is on record?
**A.** 5900 ± 420 nM

**Q.** What about the IC50 (full-length Plk1; ELISA, myc-tagged full-length Plk1 lysate, ± SEM, read-out: IC50 (nM) against full-length Plk1) of the same molecule?
**A.** 12000 ± 2100 nM

**Q.** And the “Fold-change relative to isolated PBD value” (full-length Plk1; full-length Plk1 ELISA IC50 vs isolated PBD FP IC50)?
**A.** 480 ×

**Q.** What about the “potency reduction in the full-length assay relative to the isolated PBD assay” value (full-length Plk1; full-length Plk1 ELISA vs isolated PBD FP) of the same molecule?
**A.** 480 fold

**Q.** And the IC50 (Plk3 PBD)?
**A.** 9900 ± 2200 nM

**Q.** What about the IC50 (Plk1 PBD) of the same molecule?
**A.** 25 ± 1.6 nM

**Q.** With `C#CCCCCn1cncc1C[C@H](NC(=O)[C@H](CC(C)C)NC(=O)[C@@H]1CCCN1C(C)=O)C(=O)N[C@@H](CO)C(=O)N[C@H](C(N)=O)[C@@H](C)OP(=O)(O)O` [Peptide 13] (Ac-PL[X5]S[pT]-NH2) as the molecule, how does the IC50 (Plk1 PBD) read?
**A.** 1100 ± 45 nM

**Q.** Which results are given for `C#CC[C@H](NC(=O)[C@H](CC(C)C)NC(=O)[C@@H]1CCCN1C(C)=O)C(=O)N[C@@H](CO)C(=O)N[C@H](C(N)=O)[C@@H](C)OP(=O)(O)O` [Peptide 17] (Ac-PL[Pra]S[pT]-NH2)?
**A.** loss of Plk1 PBD-binding affinity compared with parent peptide 1 (Plk1 PBD; FP): ~2 fold; IC50 (Plk1 PBD): 1000 ± 140 nM
